The values below come from PubChem BioAssay AID1626 (SRMLSC, 2009).

The subject of the assay is M. tuberculosis H37Rv growth inhibition. Briefly: M. tuberculosis H37Rv growth inhibitors, H37Rv strain (AID 1626). The conditions noted are these: for IC90: measured here: IC90 against H37Rv; for CC50: measured here: Vero cell cytotoxicity.

As a reminder, the IC50 is the midpoint of a concentration-inhibition curve. What is called IC90 is the concentration needed for an effect of 90%. Regarding `Cc1cc(C)c2c(n1)sc1c(N3CCCCC3)ncnc12`, the IC50 was 16.7 µM and the IC90 was over 100 µM.
The CC50 is the concentration that lowers cell viability or growth by half. A lower CC50 goes with harm at low concentration. As to `O=C(Nc1nnc(-c2ccc(Cl)cc2)o1)C1=COCCO1`, the IC50 was 6.4 µM, the IC90 stood at 11.4 µM and the CC50 is over 40 µM.
As for `Oc1cc(-c2ccccc2)c2ccccc2c1`, the IC50 is 27.2 µM, the IC90 was over 100 µM and the CC50 is over 40 µM.
`N#CC(c1cccc(Cl)c1)c1ccc2c(C(F)(F)F)cc(C(F)(F)F)nc2n1` (stereo not drawn) gave a CC50 of 0.415 µM.
Take `Nc1nc(F)nc2c1ncn2[C@@H]1O[C@H](CO)[C@@H](O)[C@H]1O`: the IC50 was 2.65 µM, the IC90 amounted to 3.95 µM and the CC50 came out at 0.218 µM.
The like results for `O=C(c1nnsc1S(=O)(=O)c1ccc(Cl)cc1)N1CCOCC1` were, in that order, 7.98 µM, 11.6 µM and 11.3 µM.
Consider `CCS(=O)(=O)Nc1ccc(-c2cc(-c3ccccc3)c3cc(C)ccc3n2)cc1`, for which the IC50 was 9.19 µM, the IC90 turned out to be 13.5 µM and the CC50 came out at 34.7 µM.
Regarding `Fc1cccc2sc(Nc3nnc(-c4ccco4)o3)nc12`, the IC50 was under 0.195 µM, the IC90 worked out at 3.19 µM and the CC50 was found to be 36.4 µM.
The like results for `O=c1c2c(nc3c(-c4ccc(Cl)cc4)c[nH]n13)CCC2` were, in that order, 12.9 µM, 25.6 µM and 18.9 µM.
Regarding `CCOC(=O)C(Cc1ccccc1)C(=O)Nc1cccc2ccccc12` (stereo not drawn), the IC50 is 4 µM and the IC90 came out at 12.7 µM.
As for `O=C(Nc1nnc(-c2ccccc2)o1)c1ccc(Cl)cc1`, the IC50 was under 0.195 µM, the IC90 was found to be 95.1 µM and the CC50 stood at 34.3 µM.
Turning to `OCC#CCSc1nnc(-c2ccc(Br)cc2)o1`, the IC50 is 0.543 µM and the IC90 amounted to 17.9 µM.
Regarding `CCC(=O)Nc1ccc(-c2nc3ccccc3c(=O)o2)cc1`, the IC50 is 18 µM and the IC90 is 84 µM.
For `Cc1c2c(nc3ccccc13)CCC(C)C2` (stereo not drawn) the same measures were 16.6 µM and 40.6 µM.
As to `O=C1N=C(N2CCN(c3cccc4ccccc34)CC2)S/C1=C/c1cccs1`, the CC50 is over 40 µM.
Turning to `COc1ccc2cc(C(c3nnnn3C3CCCC3)N3CCCCCC3)c3nnnn3c2c1` (stereo not drawn), the CC50 was 15.1 µM.
On to `O=C(NCCc1c[nH]c2ccccc12)c1cc2ccccc2oc1=O`, for which the IC50 is under 0.195 µM and the IC90 was under 0.195 µM.
In the case of `Cc1ccc(Nc2nnc(SCC(=O)Nc3cccnc3Cl)s2)cc1C`, the IC50 is 1.63 µM and the IC90 was 3.5 µM.
Consider `CCOc1ccc(N/C=C\C(=O)c2ccc3c(c2)OCO3)cc1`, for which the IC50 is 4.53 µM and the IC90 was over 100 µM.
With `COCCCNC(=O)COC(=O)c1ccc(-c2nc3ccccc3s2)s1`, the IC50 is 14.4 µM, the IC90 turned out to be 26.9 µM and the CC50 is over 40 µM.
Turning to `COc1ccc(-c2nnc(NC(=O)c3cc(Cl)ccc3Cl)o2)cc1`, the IC50 was 1.2 µM, the IC90 was over 100 µM and the CC50 worked out at 38.8 µM.
Take `CCOCC(=O)Nc1ccc(OCc2ccccc2)cc1`: the IC50 is 29.5 µM and the IC90 was over 100 µM.
For the compound `CCOC(=O)CSCC(=O)Nc1c(C(=O)C2CC2)oc2ccccc12`, the IC50 is 5.86 µM and the IC90 came out at 9.32 µM.
Take `Cc1ccc(CNC(=O)c2ccc([N+](=O)[O-])o2)cc1`: the half-inhibitory concentration (IC50) is under 0.391 µM, the IC90 came out at 2.89 µM and the cytotoxic concentration (CC50) is 8.28 µM.
In turn, `COc1ccc(N/C=C2\CCc3ccccc3C2=O)cc1` registered an IC90 of over 100 µM and a CC50 of over 40 µM.
With `CCOC(=O)CNC(=O)CSc1nc(-c2ccccc2)ns1`, the IC50 was 1.48 µM and the IC90 stood at 3.2 µM.
In the case of `Cc1[nH]n(-c2ccc(Br)cc2)c(=O)c1C=Nc1ccc(S(=O)(=O)Nc2nccs2)cc1`, the IC50 is 10.9 µM, the IC90 was over 100 µM and the CC50 is over 40 µM.
On to `CCOc1ccc(NC(=O)CCN2CCN(c3ccccc3)CC2)cc1`, for which the IC90 was over 100 µM.
For `O=C(c1cc2c(F)cccc2s1)N1CCCC1`, the IC50 was 7.87 µM and the IC90 was over 100 µM.
On to `Cc1cc(C)c(C2C3=C(Nc4c2c(C)nn4-c2ccccn2)c2ccccc2C3=O)c(C)c1` (stereo not drawn), for which the IC50 is 5.63 µM, the IC90 came out at 8.83 µM and the CC50 is over 40 µM.
Take `O=C(Oc1ccc(Cl)c2cccnc12)C12CC3CC(CC(C3)C1)C2`: the IC50 was 4.52 µM, the IC90 worked out at 5.77 µM and the CC50 was over 40 µM.
For `O=C(/C=C/c1cn(CC(O)CN2CCCCCC2)c2ccccc12)c1cccs1` (stereo not drawn) the same measures were 0.993 µM, 1.95 µM and 20 µM.
On to `COc1ccc(N=C(NN)c2ccc3ccccc3n2)cc1`, for which the IC50 is 54.6 µM and the IC90 was over 100 µM.
As to `COc1ccc(C(=O)Nc2cc(OC)c(NC(=O)c3ccco3)cc2OC)cc1`, the IC50 was 2.85 µM and the IC90 amounted to 9.59 µM.
Turning to `CC(C)(C)NC(=O)COC(=O)c1cc(Br)ccc1Cl`, the IC50 is 11.9 µM and the IC90 is over 100 µM.
`Nc1nc2ccccc2n1C(=O)c1ccccc1`: the IC50 is 21.9 µM, the IC90 is over 100 µM and the CC50 was over 40 µM.
For `CSc1nc(-c2ccccc2)nc(C(Cl)Cl)n1` the same measures were 1.37 µM, 2.04 µM and 6.42 µM.
The like results for `Cc1ccc(-n2cc(CN3CCC(CO)(Cc4cccc(C(F)(F)F)c4)CC3)cn2)cc1` were, in that order, 4.31 µM, 7.09 µM and 23.7 µM.
On to `CN(CC(=O)Nc1ccc(Cl)c(Cl)c1)Cc1nnc(-c2ccc(F)cc2)o1`, for which the IC50 was 15.9 µM and the IC90 came out at 24.1 µM.
For the compound `Oc1ccc2cc(Br)ccc2c1CN1CCCC1`, the IC50 was 22.2 µM, the IC90 is over 100 µM and the 50% cytotoxic concentration (CC50) was over 40 µM.
For `COC(=O)CSc1ccnc2cc(Cl)ccc12`, the IC50 is 4.25 µM and the 90% effect concentration (IC90) was found to be 12.3 µM.
As to `CC(=O)Nc1cccc(C(=O)/C=C/c2ccc(C)cc2)c1`, the concentration for half-maximal inhibition (IC50) is 33.7 µM, the IC90 was over 100 µM and the CC50 worked out at 13.7 µM.
On to `COc1ccc(N2CCN(Cc3nc(N)nc(Nc4ccc(C)c(Cl)c4)n3)CC2)cc1`, for which the IC50 is 0.546 µM, the IC90 amounted to 1.71 µM and the CC50 is over 40 µM.
Turning to `CCOC(=O)Cc1csc(NC(=O)c2c(O)c3ccccc3n(CCC(C)C)c2=O)n1`, the IC50 is under 0.195 µM, the IC90 came to 0.224 µM and the CC50 stood at 8.48 µM.
`CN1C[C@@H]2C(c3ccc(C(F)(F)F)cc3)C3(c4cccnc4)CC2(C3)[C@H]1c1ccccc1` (stereo partly drawn): the IC50 is 14.1 µM and the IC90 is 21.4 µM.
Turning to `COc1ccc(NC(=O)c2ccc(COCC(F)(F)C(F)F)cc2)cc1`, the IC90 is over 100 µM.
As for `Cc1nn2c(NCCCn3ccnc3)cc(C(C)C)nc2c1-c1ccccc1`, the IC50 was 7.66 µM, the concentration for an effect of 90% (IC90) came out at 11.9 µM and the CC50 stood at 26.4 µM.
Regarding `Cc1nc(SCC(=O)Nc2ccc(OCc3ccccc3)cc2)n[nH]1`, the IC50 was 0.406 µM and the IC90 was over 100 µM.
For `O=C(NCc1cccnc1)/C(=C/c1ccc(-c2ccc(Cl)cc2)o1)S(=O)(=O)c1ccccc1`, the IC50 was 3.9 µM, the IC90 worked out at 29.7 µM and the CC50 was 24 µM.
Turning to `c1ccc(CCNc2ccnc3cc4ccccc4cc23)cc1`, the half-maximal inhibitory concentration (IC50) was 1.5 µM, the IC90 turned out to be 1.69 µM and the CC50 came out at 8.57 µM.
For the compound `CCn1c(CNc2ccc(F)cc2)nnc1SCC(=O)OC1CCCCC1`, the IC50 is 12 µM and the IC90 came out at 13.7 µM.
As to `Cc1cc(=O)[nH]c(-n2nc(C)c(Oc3ccccc3O)c2C)n1`, the IC50 was 7.72 µM, the IC90 is over 100 µM and the CC50 was over 40 µM.
Consider `COc1ccc(N2CCN(c3nc(-c4cccs4)nc4ccccc34)CC2)cc1`, for which the IC90 is over 100 µM.
For the compound `CC(C)(C)c1cc(NCc2ccccn2)n2ncc(-c3ccc(Cl)cc3)c2n1`, the IC50 is 0.655 µM, the IC90 stood at 6.15 µM and the CC50 is over 40 µM.
For the compound `O=c1oc2ccccc2nc1/C=C(\O)c1ccccc1`, the IC50 was 6.59 µM and the IC90 is over 100 µM.
For the compound `C#CCOCCOCCOCCNc1nc(N2CCN(C(=O)[C@H](Cc3cc4ccccc4[nH]3)n3cc([C@@H](N)CC(C)C)nn3)CC2)nc(N2CCN(C(=O)[C@H](Cc3cc4ccccc4[nH]3)n3cc([C@@H](N)CC(C)C)nn3)CC2)n1`, the IC50 is 4.23 µM and the IC90 was found to be 7.58 µM.
The like results for `Nc1nnc(Sc2ncccc2[N+](=O)[O-])s1` were, in that order, 9.58 µM and 12.9 µM.
As to `Cc1ccc(-c2ccc(C3C(C#N)=C(N)Oc4n[nH]c(C)c43)o2)cc1` (stereo not drawn), the IC50 was 2.37 µM, the IC90 was over 100 µM and the CC50 was over 40 µM.
As to `COc1cccc(-c2nc(-c3ccccc3)nc(N3CCN(C)CC3)c2C#N)c1`, the IC50 is 8.8 µM, the IC90 was 12.4 µM and the CC50 was 26.7 µM.
As for `Cn1c(NC(=O)c2cccc(Cn3cc(Cl)cn3)c2)nc2ccccc21`, the CC50 is over 40 µM.
On to `O=C(Oc1ccc(Cl)cc1)c1ccc(N2CCOCC2)c([N+](=O)[O-])c1`, for which the IC50 is 1.46 µM and the IC90 is 3.16 µM.
Consider `COc1ccc(NC(=O)CN(C)CC(=O)Nc2ccc3c(c2)CCC3)cc1`, for which the IC50 is 20.6 µM and the IC90 was over 100 µM.
Regarding `CC(NC(=O)Nc1ccc(Br)cc1)C(C)(C)C` (stereo not drawn), the IC50 is 0.42 µM and the IC90 was over 100 µM.
For the compound `CC(C)(C)c1ccc(C(=O)/C=C2\NC(=O)CS2)cc1`, the IC50 was 11.8 µM, the IC90 is over 100 µM and the CC50 is over 40 µM.
`CCOC(=O)CSc1ncnc2c1cnn2-c1ccc(C)cc1`: the IC50 is 10.1 µM and the IC90 stood at 22.5 µM.
The like results for `CSc1ccccc1NC(=O)c1cc(C2CC2)on1` were, in that order, 23.6 µM and 26.7 µM.
With `Cc1ccc(N(CCC#N)C(=O)CCl)cc1C`, the IC50 is 19.7 µM, the 90% effect concentration (IC90) was 38.4 µM and the CC50 turned out to be 1.94 µM.
